Test results published in BindingDB's records for doi:10.1016/j.ejmech.2015.02.042 (University of Naples, 2015).

Key:
[1] = molecular target: Prostaglandin E synthase (Homo sapiens) (UniProt O14684); assay: Inhibition of mPGES1 in IL-1beta stimulated human A549 cell microsomal membranes assessed as reduction in PGE2 synthase activity after 15 mins using PGH2 substrate by RP-HPLC method
[2] = molecular target: Prostaglandin E synthase (Homo sapiens) (UniProt O14684); assay: Inhibition of human mPGES1

Chain of Prostaglandin E synthase (Homo sapiens) (O14684 whole entry, looked up): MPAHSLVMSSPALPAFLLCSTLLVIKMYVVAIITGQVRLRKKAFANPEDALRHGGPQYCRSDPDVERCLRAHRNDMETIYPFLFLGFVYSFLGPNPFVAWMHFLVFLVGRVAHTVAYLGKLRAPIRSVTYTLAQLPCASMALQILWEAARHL

`CCCCCCCCCCCCCCCC1=C(OC)C(=O)C=C(OC)C1=O` was tested, and the IC50 [1] was 7.2 µM.

`CCCCCCCCCCCCC1=C(O)C(=O)C=C(O)C1=O` gave an IC50 [1] of 3.1 µM.

`COC1=CC(=O)C(=O)C(C/C=C(\C)CCC=C(C)C)=C1OC` was tested, and the IC50 [1] was greater than 10 µM.

In the case of `CCCCCCCCCCCCCC1=C(OC)C(OC)=CC(=O)C1=O`, the IC50 [1] is reported as greater than 10 µM.

`CCCCCCC1=C(OC)C(OC)=CC(=O)C1=O` was tested, and the IC50 [1] was greater than 10 µM.

In the case of `CCCCCCCCCCCCCCC1=C(OC)C(OC)=CC(=O)C1=O`, the IC50 [1] is reported as greater than 10 µM.

In the case of `CCCCCCCCC1=C(O)C(=O)C=C(OC)C1=O`, the IC50 [1] is reported as greater than 10 µM.

`CCCCC1=C(OC)C(=O)C=C(OC)C1=O` was tested, and the IC50 [1] was greater than 10 µM.

`CCCCCCCCCCCCCCCC1=C(O)C(=O)C=C(O)C1=O` gave an IC50 [1] of 2.1 µM.

`CCCCCCCCC1=C(OC)C(OC)=CC(=O)C1=O` was tested, and the IC50 [1] was greater than 10 µM.

`CCCCCCCCCCC1=C(OC)C(OC)=CC(=O)C1=O` showed an IC50 [1] greater than 10 µM.

`CCCCCCCCCCCCCCCCC1=C(OC)C(=O)C=C(OC)C1=O` gave an IC50 [1] greater than 10 µM.

Work on `CCCCCCCCCCC1=C(O)C(=O)C=C(O)C1=O` yielded an IC50 [1] of 1 µM.

With `CCCCCCCCCCCCCCCC1=C(OC)C(OC)=CC(=O)C1=O` the IC50 [1] was greater than 10 µM.

`CCCCCCCCCCCCCCCCC1=C(O)C(=O)C=C(OC)C1=O` showed an IC50 [1] greater than 10 µM.

Molecule `CCCCC1=C(O)C(=O)C=C(OC)C1=O` has an IC50 [1] greater than 10 µM.

Work on `CCCCCCCCCCCC1=C(OC)C(OC)=CC(=O)C1=O` yielded an IC50 [1] greater than 10 µM.

For `CCCCCCCCC1=C(O)C(=O)C=C(O)C1=O`, the IC50 [1] was 0.8 µM.

Work on `CC(C)=CCC/C(C)=C/CC/C(C)=C/CC1=C(O)C(=O)C=C(O)C1=O` yielded an IC50 [1] greater than 10 µM.

In the case of `CCCCCCCCCCCCCCC1=C(O)C(=O)C=C(OC)C1=O`, the IC50 [1] is reported as greater than 10 µM.

`CCCCC1=C(O)C(=O)C=C(O)C1=O` was tested, and the IC50 [1] was greater than 10 µM.

In the case of `CCCCCCC1=C(O)C(=O)C=C(OC)C1=O`, the IC50 [1] is reported as greater than 10 µM.

With `CCCCCCCCC1=C(OC)C(=O)C=C(OC)C1=O` the IC50 [1] was greater than 10 µM.

`CCCCCCCCCCCCCCCC1=C(O)C(=O)C=C(OC)C1=O` showed an IC50 [1] of 9.3 µM.

`COC1=CC(=O)C(OC)=C(C/C=C(\C)CC/C=C(\C)CCC=C(C)C)C1=O` showed an IC50 [1] greater than 10 µM.

`CCCCCCC1=C(O)C(=O)C=C(O)C1=O` showed an IC50 [1] greater than 10 µM.

`COC1=CC(=O)C(O)=C(C/C=C(\C)CC/C=C(\C)CCC=C(C)C)C1=O` was tested, and the IC50 [1] was greater than 10 µM.

`COC1=CC(=O)C(=O)C(C/C=C(\C)CC/C=C(\C)CCC=C(C)C)=C1OC` was tested, and the IC50 [1] was greater than 10 µM.

With `CCCCCCCCCCCCCCC1=C(O)C(=O)C=C(O)C1=O` the IC50 [1] was 1.6 µM.

For `CCCCCCCCCCCCCC1=C(OC)C(=O)C=C(OC)C1=O`, the IC50 [1] was 1.8 µM.

For `CCCCCCCCCCCCC1=C(OC)C(OC)=CC(=O)C1=O`, the IC50 [1] was greater than 10 µM.

With `CCCCCCC1=C(OC)C(=O)C=C(OC)C1=O` the IC50 [1] was greater than 10 µM.

With `CCCCCCCCCCCCCCCCC1=C(O)C(=O)C=C(O)C1=O` the IC50 [1] was greater than 10 µM.

`CCCCCCCCCCCCC1=C(O)C(=O)C=C(OC)C1=O` gave an IC50 [1] of 5.8 µM.

Molecule `CCCCCCCCCCC1=C(OC)C(=O)C=C(OC)C1=O` has an IC50 [1] greater than 10 µM.

With `CCCCCCCCCCCC1=C(O)C(=O)C=C(OC)C1=O` [CHEBI:65842] the IC50 [1] was 9.1 µM.

Molecule `COC1=CC(=O)C(OC)=C(C/C=C(\C)CCC=C(C)C)C1=O` has an IC50 [1] greater than 10 µM.

`CCCCC1=C(OC)C(OC)=CC(=O)C1=O` gave an IC50 [1] greater than 10 µM.

For `CCCCCCCCCCCCCC1=C(O)C(=O)C=C(O)C1=O` [CHEBI:8779], the IC50 [1] was 0.9 µM.

`CCCCCCCCCCC1=C(O)C(=O)C=C(OC)C1=O` gave an IC50 [1] greater than 10 µM.

`CCCCCCCCCCCC1=C(O)C(=O)C=C(O)C1=O` [CHEBI:4778] gave an IC50 [2] of 0.21 µM and an IC50 [1] of 0.21 µM.

`CCCCCCCCCCCCC1=C(OC)C(=O)C=C(OC)C1=O` showed an IC50 [1] of 4.7 µM.

With `CCCCCCCCCCCC1=C(OC)C(=O)C=C(OC)C1=O` the IC50 [1] was greater than 10 µM.

`CC(C)=CCC/C(C)=C/CC1=C(O)C(=O)C=C(O)C1=O` was tested, and the IC50 [1] was greater than 10 µM.

`CCCCCCCCCCCCCC1=C(O)C(=O)C=C(OC)C1=O` [Sorgoleone-364] was tested, and the IC50 [1] was 6.1 µM.

`COC1=CC(=O)C(O)=C(C/C=C(\C)CCC=C(C)C)C1=O` showed an IC50 [1] greater than 10 µM.

`CCCCCCCCCCCCCCC1=C(OC)C(=O)C=C(OC)C1=O` was tested, and the IC50 [1] was 4.4 µM.
